{"source": "ChEMBL document CHEMBL1268929", "about": "“Design, synthesis, and evaluation of an α-tocopherol analogue as a mitochondrial antioxidant” (2010)", "key": {"CCRF-CEM": {"test_system": "CCRF-CEM", "assay": "Antioxidant activity against diethyl maleate-induced intracellular ROS accumulation in human CEM cells at 5 uM pretreated for 1 hr before diethyl maleate challenge measured after 30 mins by flow cytometry", "format": "functional"}, "Bos taurus": {"species": "Bos taurus", "assay": "Antioxidant activity against AAPH-induced lipid peroxidation in bovine heart mitochondrial membrane at 50 uM by spectrofluorimetric analysis", "format": "functional", "conditions": "Mitochondria"}}, "note": "The source made the active and inactive calls. The rule behind the calls is not given here.", "data": [{"smiles": "Cc1c(C)c2c(c(C)c1O)CC[C@@](C)(CCC[C@H](C)CCC[C@H](C)CCCC(C)C)O2", "note": "[ALPHA-TOCOPHEROL]", "values": [{"measurement": "Activity", "setting": "CCRF-CEM", "result": 65, "unit": "%"}]}, {"smiles": "Cc1nc2c(c(CC[C@](C)(O)CCC[C@H](C)CCC[C@H](C)CCCC(C)C)c1O)CCN2C", "values": [{"measurement": "Activity", "setting": "CCRF-CEM", "result": 2, "unit": "%"}, {"measurement": "Activity", "setting": "Bos taurus", "result": "Active"}]}, {"smiles": "Cc1nc2c(c(C)c1O)CCN2C", "values": [{"measurement": "Activity", "setting": "CCRF-CEM", "result": 75, "unit": "%"}]}]}
